Reference: article PMC6152105, “NMR Insights into the Structure-Function Relationships in the Binding of Melanocortin Analogues to the MC1R Receptor” (Molecules : A Journal of Synthetic Chemistry and Natural …, 2017)
“Also recorded” adds a separate entry of the source. Where two headings read alike, the source gives them in different places. Blank lines part the entries; values can stand above or below the molecule they belong to. Numbered stars: 1 amine (or outer) side, 2 acyl side, 3 side chain; on linkers, the order of the positions; unused ones are H or OH. Bridge positions count the residues as written; N and C are the ends. Square brackets hold non-standard residues; d marks the D form. Peptide text beside a SMILES is read from it. nitrobenzoyl (NO2-C6H3-CO) = nitrobenzoyl unit acylating the N-terminal His, with its aryl carbon thioether-bonded to the Cys side-chain S; X1 = O=C(c1cc([N+](=O)[O-])ccc1[*:2])[*:1]

What was measured:
[1] = target: T1, MC1R (Mus musculus, UniProt Q01727); test: Competitive binding assay with [125I]-NDP-α-MSH in B16F1 melanoma cells; conditions: [125I]-[Nle4,DPhe7]-α-MSH radioligand, murine melanoma B16F1 cells, in triplicate, GraphPad Prism fit, read-out: MC1R binding affinity (IC50)
T1 construct: endogenous in cells; host or cells: murine melanoma B16F1 cells
Description: The binding affinities of the peptides CycN-K6 and CycN-K7 to MC1R were tested in a competitive binding assay using [^125I]-[Nle^4,DPhe^7]-α-MSH ([^125I]-NDP-α-MSH) as radioligand and murine melanoma B16F1 cells (Figure S1, Supplementary Materials), as previously described for other α-MSH analogues. Table 1 lists the IC50 values obtained for those two peptides, and for the 19-membered macrocyclic peptides PG10N and CycS-C6 [19, 20]. […] Therefore, a detailed structural comparison of these three peptides is required to understand the molecular basis for their binding to receptor MC1R.
NDP-α-MSH was radioiodinated as described. To determine the inhibitory concentration of 50 % (IC50) values for the α-MSH analogues, competitive binding assays with [^125I]NDP-α-MSH in B16F1 melanoma cells were carried out in triplicate following the previously described procedure. IC50 values were calculated from the plots of the percentage of [^125I]NDP-α-MSH bound to the cells vs. the concentrations of displacing peptides by using GraphPad Prism software (GraphPad Software Inc., La Jolla, CA, USA).

[2] = target: T1, MC1R; conditions: ref [20], cited from earlier work
Description: Table 1 Sequences, cycle size and MC1R binding affinities (IC50) of cyclic α-MSH analogues. | column: IC50 (nM) || Linear and cyclic analogues of the α-melanocyte stimulating hormone (α-MSH) targeting the human melanocortin receptor 1 (MC1R) are of pharmacological interest for detecting and treating melanoma. The central sequence of α-MSH (His-Phe-Arg-Trp) has been identified as being essential for receptor binding. To deepen current knowledge on the molecular basis for α-MSH bioactivity, we aimed to understand the effect of cycle size on receptor binding. To that end, we synthesised two macrocyclic isomeric α-MSH analogues, c[NH-NO2-C6H3-CO-His-DPhe-Arg-Trp-Lys]-Lys-NH2 (CycN-K6) and c[NH-NO2-C6H3-CO-His- ... || Aimed at enhancing the biological stability, potency and specificity of the endogenous ligand, a library of α-MSH analogues has been designed for imaging and therapeutic applications. […] However, replacement of the alkylthioaryl-bridge (Cy ... || (+ 1 further places)

[3] = system: MC1R; conditions: 19-membered parent peptide; ref [19]; read-out: MC1R binding affinity (IC50); cited from earlier work
Description: Table 1 Sequences, cycle size and MC1R binding affinities (IC50) of cyclic α-MSH analogues. | column: IC50 (nM)

[4] = system: all human MCRs; conditions: ref [19]; cited from earlier work
Description: Aimed at enhancing the biological stability, potency and specificity of the endogenous ligand, a library of α-MSH analogues has been designed for imaging and therapeutic applications. […] However, replacement of the alkylthioaryl-bridge (Cy ...

T1 sequence (Q01727 whole entry): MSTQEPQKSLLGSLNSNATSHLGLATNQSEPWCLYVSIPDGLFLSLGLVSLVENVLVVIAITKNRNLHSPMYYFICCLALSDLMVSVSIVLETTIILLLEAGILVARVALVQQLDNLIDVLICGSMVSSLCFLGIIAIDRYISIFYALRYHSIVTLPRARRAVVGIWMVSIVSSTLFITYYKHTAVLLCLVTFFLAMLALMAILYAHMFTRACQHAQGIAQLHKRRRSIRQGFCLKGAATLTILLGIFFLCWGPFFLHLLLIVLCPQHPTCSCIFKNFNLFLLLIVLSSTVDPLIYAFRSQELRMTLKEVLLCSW

IC50 [1]: 155 ± 16 nM
Molecule: N=C(N)NCCC[C@@H]1NC(=O)[C@@H](Cc2ccccc2)NC(=O)[C@H](Cc2c[nH]cn2)NC(=O)c2cc([N+](=O)[O-])ccc2NCCCC[C@@H](C(=O)N[C@@H](CCCCN)C(N)=O)NC(=O)[C@H](Cc2c[nH]c3ccccc23)NC1=O [CycN-K6, c[NH–NO2–C6H3–CO–His–DPhe–Arg–Trp–Lys]–Lys–NH2] (H[dF]RWKK-NH2; linker N-5 via X1)

IC50 [1]: 495 ± 101 nM
Molecule: N=C(N)NCCC[C@@H]1NC(=O)[C@@H](Cc2ccccc2)NC(=O)[C@H](Cc2c[nH]cn2)NC(=O)c2cc([N+](=O)[O-])ccc2NCCCC[C@@H](C(N)=O)NC(=O)[C@H](CCCCN)NC(=O)[C@H](Cc2c[nH]c3ccccc23)NC1=O [CycN-K7, c[NH–NO2–C6H3–CO–His–DPhe–Arg–Trp–Lys–Lys]–NH2] (H[dF]RWKK-NH2; linker N-6 via X1)

Molecule: c[S–NO2–C6H3–CO–His–DPhe–Arg–Trp–Cys]–Lys–NH2 (sidechain bridge or staple) ({nitrobenzoyl (NO2-C6H3-CO)}-H[dF]RWCK-NH2; thioether N-5) [CycS-C6, 19-membered cyclic analogue, previously reported by the authors]
IC50 ([2]; previously reported by the authors, competitive binding, [125I]-NDP-α-MSH, B16F1 cells, read-out: MC1R binding affinity (IC50)): 1770 ± 480 nM

Molecule: c[S–NO2–C6H3–CO–His–DPhe–Arg–Trp–Cys]–Lys–NH2 (sidechain bridge or staple) [CycS-C6, 19-membered cyclic analogue, previously reported by the authors]
MC1R binding in words ([2]; relative to parent PG10N, addition of C-terminal Lys): strongly decreases affinity to MC1R; also recorded: impaired binding

Molecule: c[S–NO2–C6H3–CO–His–DPhe–Arg–Trp–Cys]–NH2 (sidechain bridge or staple) [PG10N, 19-membered alkylthioaryl-bridged macrocyclic α-MSH analogue]
IC50 [3]: 3.7 ± 0.5 nM | agonist activity [4]: potent full agonist for all human MCRs
